Where two headings read alike, the source gives them in different places.
Key:
Test in all cases: biochemical
Format in all cases: binding
[1] = target: panel of 468 diverse kinases (Homo sapiens, UniProt P42681); details: TXK; 1000 nM; read-out: Percent Control
[2] = target: panel of 468 diverse kinases (Homo sapiens, UniProt Q13464); details: ROCK1; 1000 nM; read-out: Percent Control
[3] = target: panel of 468 diverse kinases (Homo sapiens, UniProt P45983); details: JNK1; 1000 nM; read-out: Percent Control
[4] = target: panel of 468 diverse kinases (Homo sapiens, UniProt P08581, M1250T); details: MET(M1250T); 1000 nM; read-out: Percent Control
[5] = target: panel of 468 diverse kinases (Homo sapiens, UniProt P19525); details: PRKR; 1000 nM; read-out: Percent Control
[6] = target: panel of 468 diverse kinases (Homo sapiens, UniProt O43283); details: LZK; 1000 nM; read-out: Percent Control
[7] = target: panel of 468 diverse kinases (Homo sapiens, UniProt P54764); details: EPHA4; 1000 nM; read-out: Percent Control
[8] = target: panel of 468 diverse kinases (Homo sapiens, UniProt P00533, T790M); details: EGFR(T790M); 1000 nM; read-out: Percent Control
[9] = target: panel of 468 diverse kinases (Homo sapiens, UniProt Q9Y5S2); details: MRCKB; 1000 nM; read-out: Percent Control
[10] = target: panel of 468 diverse kinases (Homo sapiens, UniProt O60331); details: PIP5K1C; 1000 nM; read-out: Percent Control
[11] = target: panel of 468 diverse kinases (Homo sapiens, UniProt P42336, E545K); details: PIK3CA(E545K); 1000 nM; read-out: Percent Control
[12] = target: panel of 468 diverse kinases (Homo sapiens, UniProt P24723); details: PRKCH; 1000 nM; read-out: Percent Control
[13] = target: panel of 468 diverse kinases (Homo sapiens, UniProt O60285); details: ARK5; 1000 nM; read-out: Percent Control
[14] = target: panel of 468 diverse kinases (Homo sapiens, UniProt Q8TD19); details: NEK9; 1000 nM; read-out: Percent Control
[15] = target: panel of 468 diverse kinases (Homo sapiens, UniProt P17948); details: FLT1; 1000 nM; read-out: Percent Control
[16] = target: panel of 468 diverse kinases (Homo sapiens, UniProt P51617); details: IRAK1; 1000 nM; read-out: Percent Control
[17] = target: panel of 468 diverse kinases (Homo sapiens, UniProt P10721, D816V); details: KIT(D816V); 1000 nM; read-out: Percent Control
[18] = target: panel of 468 diverse kinases (Homo sapiens, UniProt Q8TF76); details: HASPIN; 1000 nM; read-out: Percent Control
[19] = target: panel of 468 diverse kinases (Homo sapiens, UniProt O15075); details: DCAMKL1; 1000 nM; read-out: Percent Control
[20] = target: panel of 468 diverse kinases (Homo sapiens, UniProt Q12866); details: MERTK; 1000 nM; read-out: Percent Control
[21] = target: panel of 468 diverse kinases (Homo sapiens, UniProt P36888, N841I); details: FLT3(N841I); 1000 nM; read-out: Percent Control
[22] = target: panel of 468 diverse kinases (Homo sapiens, UniProt P14616); details: INSRR; 1000 nM; read-out: Percent Control
[23] = target: panel of 468 diverse kinases (Homo sapiens, UniProt O43318); details: TAK1; 1000 nM; read-out: Percent Control
[24] = target: panel of 468 diverse kinases (Homo sapiens, UniProt Q05397); details: FAK; 1000 nM; read-out: Percent Control
[25] = target: panel of 468 diverse kinases (Homo sapiens, UniProt P22607); details: FGFR3; 1000 nM; read-out: Percent Control
[26] = target: panel of 468 diverse kinases (Homo sapiens, UniProt Q15569); details: TESK1; 1000 nM; read-out: Percent Control
[27] = target: panel of 468 diverse kinases (Homo sapiens, UniProt P11802); details: 1000 nM, read-out: Percent Control
[28] = target: panel of 468 diverse kinases (Homo sapiens, UniProt Q13555); details: CAMK2G; 1000 nM; read-out: Percent Control
[29] = target: panel of 468 diverse kinases (Homo sapiens, UniProt Q9UM73); details: ALK; 1000 nM; read-out: Percent Control
[30] = target: panel of 468 diverse kinases (Homo sapiens, UniProt Q92630); details: DYRK2; 1000 nM; read-out: Percent Control

panel of 468 diverse kinases (Homo sapiens, UniProt P11802), sequence (P11802 2-303 limits assumed): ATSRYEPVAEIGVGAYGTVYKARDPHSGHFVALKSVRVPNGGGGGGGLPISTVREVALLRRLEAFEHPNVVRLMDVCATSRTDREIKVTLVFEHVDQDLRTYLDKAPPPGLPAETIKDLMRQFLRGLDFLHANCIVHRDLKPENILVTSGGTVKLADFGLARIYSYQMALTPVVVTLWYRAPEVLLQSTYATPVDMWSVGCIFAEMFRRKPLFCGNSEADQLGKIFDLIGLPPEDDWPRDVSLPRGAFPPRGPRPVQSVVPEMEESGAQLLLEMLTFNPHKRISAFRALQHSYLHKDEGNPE
panel of 468 diverse kinases (Homo sapiens, UniProt Q8TD19), sequence (Q8TD19 2-979 limits assumed): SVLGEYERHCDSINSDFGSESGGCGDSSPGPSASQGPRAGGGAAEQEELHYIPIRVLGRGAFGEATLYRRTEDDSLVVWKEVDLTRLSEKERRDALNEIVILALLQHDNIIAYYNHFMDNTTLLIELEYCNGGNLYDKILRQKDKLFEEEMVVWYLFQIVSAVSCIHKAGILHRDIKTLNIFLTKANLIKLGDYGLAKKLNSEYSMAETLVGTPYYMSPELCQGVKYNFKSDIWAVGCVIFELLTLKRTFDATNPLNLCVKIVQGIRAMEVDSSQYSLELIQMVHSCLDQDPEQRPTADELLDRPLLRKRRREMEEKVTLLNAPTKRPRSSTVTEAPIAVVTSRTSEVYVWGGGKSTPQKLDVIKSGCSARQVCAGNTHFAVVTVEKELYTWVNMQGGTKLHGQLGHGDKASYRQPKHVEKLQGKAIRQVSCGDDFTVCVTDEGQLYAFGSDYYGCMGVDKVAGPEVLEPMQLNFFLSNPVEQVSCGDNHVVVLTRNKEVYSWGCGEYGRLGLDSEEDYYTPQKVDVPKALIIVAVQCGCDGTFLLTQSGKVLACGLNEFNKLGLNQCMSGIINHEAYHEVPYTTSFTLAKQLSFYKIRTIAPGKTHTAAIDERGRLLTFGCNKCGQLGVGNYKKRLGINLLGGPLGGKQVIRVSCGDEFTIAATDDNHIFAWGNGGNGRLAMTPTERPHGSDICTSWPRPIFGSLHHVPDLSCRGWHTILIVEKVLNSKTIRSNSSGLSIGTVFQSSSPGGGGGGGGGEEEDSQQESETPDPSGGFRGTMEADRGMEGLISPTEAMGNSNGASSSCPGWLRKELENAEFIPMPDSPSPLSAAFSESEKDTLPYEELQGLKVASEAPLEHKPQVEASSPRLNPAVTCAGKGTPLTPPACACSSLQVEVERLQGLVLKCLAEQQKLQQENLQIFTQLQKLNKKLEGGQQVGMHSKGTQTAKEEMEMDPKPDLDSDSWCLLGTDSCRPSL
panel of 468 diverse kinases (Homo sapiens, UniProt P14616), sequence (P14616 27-742 limits assumed): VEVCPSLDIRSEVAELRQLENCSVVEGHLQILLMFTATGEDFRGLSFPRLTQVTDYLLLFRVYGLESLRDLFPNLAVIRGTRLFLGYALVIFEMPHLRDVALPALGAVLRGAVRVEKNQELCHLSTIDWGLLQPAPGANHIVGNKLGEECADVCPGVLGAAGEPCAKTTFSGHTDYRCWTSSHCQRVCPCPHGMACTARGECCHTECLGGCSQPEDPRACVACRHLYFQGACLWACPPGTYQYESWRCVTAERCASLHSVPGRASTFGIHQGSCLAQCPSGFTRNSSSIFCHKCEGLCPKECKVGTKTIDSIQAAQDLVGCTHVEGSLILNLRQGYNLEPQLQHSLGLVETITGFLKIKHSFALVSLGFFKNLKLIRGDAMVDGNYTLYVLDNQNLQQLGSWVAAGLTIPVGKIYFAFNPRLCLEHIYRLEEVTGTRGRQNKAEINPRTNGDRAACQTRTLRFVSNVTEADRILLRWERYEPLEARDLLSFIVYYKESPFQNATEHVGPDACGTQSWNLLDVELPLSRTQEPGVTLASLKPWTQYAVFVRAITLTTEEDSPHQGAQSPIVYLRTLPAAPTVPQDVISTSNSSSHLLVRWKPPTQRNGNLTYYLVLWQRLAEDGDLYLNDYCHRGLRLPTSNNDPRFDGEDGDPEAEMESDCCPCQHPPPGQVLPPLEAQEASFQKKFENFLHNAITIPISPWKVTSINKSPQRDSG
panel of 468 diverse kinases (Homo sapiens, UniProt P14616), sequence (P14616 747-1297 limits assumed): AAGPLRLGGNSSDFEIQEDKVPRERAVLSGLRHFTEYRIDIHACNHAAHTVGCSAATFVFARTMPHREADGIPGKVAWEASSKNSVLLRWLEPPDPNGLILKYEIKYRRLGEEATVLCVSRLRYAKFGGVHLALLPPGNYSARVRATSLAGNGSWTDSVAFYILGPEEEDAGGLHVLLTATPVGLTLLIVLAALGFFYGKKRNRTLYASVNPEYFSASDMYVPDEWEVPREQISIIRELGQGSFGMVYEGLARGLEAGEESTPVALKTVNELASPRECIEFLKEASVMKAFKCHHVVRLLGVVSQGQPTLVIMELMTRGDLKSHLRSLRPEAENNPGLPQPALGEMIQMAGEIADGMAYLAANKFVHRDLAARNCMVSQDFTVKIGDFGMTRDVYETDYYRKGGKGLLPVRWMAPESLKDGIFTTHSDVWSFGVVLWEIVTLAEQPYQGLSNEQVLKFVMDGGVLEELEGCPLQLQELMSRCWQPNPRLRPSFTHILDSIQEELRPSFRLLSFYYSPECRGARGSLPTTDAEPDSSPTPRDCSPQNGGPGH
panel of 468 diverse kinases (Homo sapiens, UniProt Q9UM73), sequence (Q9UM73 19-1620 limits assumed): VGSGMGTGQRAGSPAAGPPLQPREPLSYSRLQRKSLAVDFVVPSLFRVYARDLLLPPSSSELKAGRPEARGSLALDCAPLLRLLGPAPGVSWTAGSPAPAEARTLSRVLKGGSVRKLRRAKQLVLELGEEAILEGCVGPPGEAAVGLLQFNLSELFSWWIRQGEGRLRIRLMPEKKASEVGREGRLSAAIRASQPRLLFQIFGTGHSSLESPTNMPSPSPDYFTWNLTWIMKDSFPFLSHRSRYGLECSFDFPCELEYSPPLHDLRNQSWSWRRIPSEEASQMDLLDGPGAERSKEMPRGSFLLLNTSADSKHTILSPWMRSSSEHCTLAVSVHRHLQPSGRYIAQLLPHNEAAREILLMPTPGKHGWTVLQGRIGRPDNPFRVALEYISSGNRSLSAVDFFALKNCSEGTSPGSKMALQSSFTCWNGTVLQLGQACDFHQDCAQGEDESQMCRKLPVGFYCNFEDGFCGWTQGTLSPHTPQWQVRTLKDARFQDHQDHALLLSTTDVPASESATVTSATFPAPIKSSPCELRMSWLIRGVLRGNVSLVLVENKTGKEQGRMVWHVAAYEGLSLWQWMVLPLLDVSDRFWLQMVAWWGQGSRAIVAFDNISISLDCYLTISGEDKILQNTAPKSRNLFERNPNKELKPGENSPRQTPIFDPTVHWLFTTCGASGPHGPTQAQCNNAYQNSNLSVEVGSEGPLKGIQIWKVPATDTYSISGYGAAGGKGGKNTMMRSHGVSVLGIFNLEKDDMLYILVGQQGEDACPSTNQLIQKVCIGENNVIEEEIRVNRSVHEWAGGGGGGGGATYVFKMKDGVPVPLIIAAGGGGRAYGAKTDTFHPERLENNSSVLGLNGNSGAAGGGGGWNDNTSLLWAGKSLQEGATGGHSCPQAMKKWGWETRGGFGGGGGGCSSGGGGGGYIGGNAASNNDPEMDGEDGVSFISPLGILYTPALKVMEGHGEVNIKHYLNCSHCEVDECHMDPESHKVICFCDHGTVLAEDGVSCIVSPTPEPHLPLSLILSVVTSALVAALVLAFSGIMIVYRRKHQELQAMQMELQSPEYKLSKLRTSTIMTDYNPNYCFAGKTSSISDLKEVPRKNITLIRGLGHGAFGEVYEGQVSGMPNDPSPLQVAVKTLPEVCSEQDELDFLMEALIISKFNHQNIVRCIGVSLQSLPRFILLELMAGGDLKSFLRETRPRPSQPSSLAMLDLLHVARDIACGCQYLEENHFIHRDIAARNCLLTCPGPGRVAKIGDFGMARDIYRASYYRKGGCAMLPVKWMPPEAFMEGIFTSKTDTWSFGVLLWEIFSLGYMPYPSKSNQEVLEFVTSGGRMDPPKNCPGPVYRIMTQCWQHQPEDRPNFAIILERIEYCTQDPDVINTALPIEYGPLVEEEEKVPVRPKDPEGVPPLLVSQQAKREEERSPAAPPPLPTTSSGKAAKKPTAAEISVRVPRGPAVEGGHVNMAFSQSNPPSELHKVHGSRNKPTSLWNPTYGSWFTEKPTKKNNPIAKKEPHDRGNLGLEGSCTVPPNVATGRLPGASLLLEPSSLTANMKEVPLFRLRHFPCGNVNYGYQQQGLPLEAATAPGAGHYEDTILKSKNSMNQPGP
panel of 468 diverse kinases (Homo sapiens, UniProt P19525), sequence (P19525 2-551 limits assumed): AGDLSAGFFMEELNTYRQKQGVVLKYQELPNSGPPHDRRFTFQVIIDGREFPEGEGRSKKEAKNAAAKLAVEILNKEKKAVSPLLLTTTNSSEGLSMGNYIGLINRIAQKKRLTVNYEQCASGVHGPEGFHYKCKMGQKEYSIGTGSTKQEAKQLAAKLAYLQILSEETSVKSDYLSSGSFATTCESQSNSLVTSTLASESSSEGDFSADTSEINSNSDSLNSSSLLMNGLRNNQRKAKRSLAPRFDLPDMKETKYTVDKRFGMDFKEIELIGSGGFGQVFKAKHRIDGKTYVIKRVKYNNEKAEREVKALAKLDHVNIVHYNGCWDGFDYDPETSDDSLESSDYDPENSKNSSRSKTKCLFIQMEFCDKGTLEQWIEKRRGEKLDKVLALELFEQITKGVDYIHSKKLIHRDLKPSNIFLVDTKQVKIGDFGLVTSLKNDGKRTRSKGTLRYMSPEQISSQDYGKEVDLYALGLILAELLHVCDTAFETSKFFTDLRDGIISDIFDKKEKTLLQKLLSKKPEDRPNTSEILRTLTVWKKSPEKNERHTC

## COc1cc2nc(NC3CC3)nc(NC3CCN(C(C)C)CC3)c2cc1OC [Formula IV]
[1]
  remaining activity at 1 µM: 98%
[2]
  remaining activity at 1 µM: 45%
[3]
  remaining activity at 1 µM: 52%
[4]
  remaining activity at 1 µM: 88%
[5]
  remaining activity at 1 µM: 99%
[6]
  remaining activity at 1 µM: 45%
[7]
  remaining activity at 1 µM: 100%
[8]
  remaining activity at 1 µM: 44%
[9]
  remaining activity at 1 µM: 92%
[10]
  remaining activity at 1 µM: 100%
[11]
  remaining activity at 1 µM: 48%
[12]
  remaining activity at 1 µM: 81%
[13]
  remaining activity at 1 µM: 98%
[14]
  remaining activity at 1 µM: 83%
[15]
  remaining activity at 1 µM: 95%
[16]
  remaining activity at 1 µM: 80%
[17]
  remaining activity at 1 µM: 100%
[18]
  remaining activity at 1 µM: 71%
[19]
  remaining activity at 1 µM: 53%
[20]
  remaining activity at 1 µM: 70%
[21]
  remaining activity at 1 µM: 63%
[22]
  remaining activity at 1 µM: 86%
[23]
  remaining activity at 1 µM: 84%
[24]
  remaining activity at 1 µM: 88%
[25]
  remaining activity at 1 µM: 100%
[26]
  remaining activity at 1 µM: 100%
[27]; CDK4-cyclinD1
  remaining activity at 1 µM: 67%
[27]; CDK4-cyclinD3
  remaining activity at 1 µM: 54%
[27]; CDK4
  remaining activity at 1 µM: 62%
[28]
  remaining activity at 1 µM: 100%
[29]
  remaining activity at 1 µM: 61%
[30]
  remaining activity at 1 µM: 84%
